Measured values taken from patent US7625896B2, “Pyridylsulfonamide derivatives” (Hoffman-La Roche Inc., priority 2005, dated 2009).
Structures can show the parent of a compound that is named as a salt.

Test system: HCT 116 cells
Experiment: Viability assay in HCT 116 cells (CellTiter-Glo Luminescent Cell Viability Assay)
Format: cell-based
Details: HCT 116 human colon carcinoma cells, 5 days (120 h) incubation, 10 concentrations 30 μM to 0.0015 μM, ATP luminescence
Experimental: Viability Assay in HCT 116 Cells
A viability assay was performed using the CellTiter-Glo® Luminescent Cell Viability Assay (see Promega Corporation's Technical Bulletin No. 288, pp. 1-11 [revised February 2004] which is hereby incorporated by reference in its entirety). This assay is a homogeneous method of determining the number of viable cells in culture based on quantitation of the ATP present, an indicator of metabolically active cells. The assay is designed for use with multiwell formats, making it ideal for automated high-throughput screening (HTS), cell proliferation and cytotoxicity assays. The homogeneous assay procedure involves adding a single reagent (containing luciferase, luciferan substrate, and buffer) directly to cells cultured in serum-supplemented medium. Cell washing, removal of medium and multiple pipetting steps are not required. The system detects as few as 15 cells/well in a 384-well format in 10 minutes after adding reagent and mixing.
The homogeneous “add-mix-measure” format results in cell lysis and generation of a luminescent signal proportional to the amount of ATP present. The amount of ATP is directly proportional to the number of cells present in culture. The above-referenced assay generates a “glow-type” luminescent signal, produced by the luciferase reaction, which has a half-life generally greater than five hours, depending on cell type and medium used. The extended half-life eliminates the need to use reagent injectors and provides flexibility for continuous or batch mode processing of multiple plates. The unique homogeneous format avoids errors that may be introduced by other ATP measurement methods that require multiple steps.
HCT 116 cells (human colon carcinoma, ATCC-No. CCl-247) were cultivated in RPMI 1640 medium with GlutaMAX™ I (cell culture media that contains L-Alanyl-L-Glutamine [a stabilized form/source of L-Glutamine] from Invitrogen, Cat-No. 61870-010), 5% Fetal Calf Serum (FCS, Sigma Cat-No. F4135 (FBS)); 100 Units/ml penicillin/100 μg/ml streptomycin (=Pen/Strep from Invitrogen Cat. No. 15140). For the assay the cells were seeded in 384 well plates, 1000 cells per well, in the same medium. The next day the test compounds were added in various concentrations ranging from 30 μM to 0.0015 μM (10 concentrations, 1:3 diluted). After 5 days the viability assay was performed according to the instructions of the manufacturer. In brief: the cell-plate was equilibrated to room temperature for approximately 30 minutes and then the reagent (containing luciferase, luciferan substrate, and buffer) was added. The contents were carefully mixed for 15 minutes to induce cell lysis. After 45 minutes the luminescent signal was measured in Victor 2, (scanning multiwell spectrophotometer, Wallac).
1st. Day: • Medium: RPMI 1640 with GlutaMAX™ I (Invitrogen, Cat-No. 61870), 5% FCS (Sigma Cat.-No. F4135), Pen/Strep (Invitrogen, Cat No. 15140). • HCT116 (ATCC-No. CCl-247): 1000 cells in 60 μl per well of 384 well plate (Greiner 781098, μClear-plate white) • After seeding incubate plates 24 h at 37° C., 5% CO2
2nd. Day: Induction (Treatment with Compounds, 10 Concentrations):
In order to achieve a final concentration of 30 μM as highest concentration 3.5 μl of 10 mM compound stock solution were added directly to 163 μl media. Then step e) of the dilution procedure described below, was followed.

| SMILES | IC50 [µM] |
| --- | --- |
| O=C(NS(=O)(=O)c1ccc(N2CCOCC2)nc1)c1ccc(Cl)cc1Br [Example 1-29, 6-Morpholin-4-yl-pyridine-3-sulfonic acid 2-bromo-4-chloro-benzoylamide; sodium salt] | 1 to 16 |
| O=C(NS(=O)(=O)c1cnc(Cl)c(Br)c1)c1ccc(Cl)cc1Cl [Example 1-13, 5-Bromo-6-chloro-pyridine-3-sulfonic acid 2,4-dichloro-benzoylamide; sodium salt] | 1 to 16 |
| O=C(NS(=O)(=O)c1ccc(N2CCCCCC2)nc1)c1ccc(Cl)cc1Cl [Example 1-69, 6-Azepan-1-yl-pyridine-3-sulfonic acid 2,4-dichloro-benzoylamide] | 1 to 16 |
| Cc1ccc(C(=O)NS(=O)(=O)c2ccc(N3CCOCC3)nc2)c(Br)c1 [Example 1-4, 6-Morpholin-4-yl-pyridine-3-sulfonic acid 2-bromo-4-methyl-benzoylamide; sodium salt] | 1 to 16 |
| O=C(NS(=O)(=O)c1ccc(Oc2ccccc2)nc1)c1ccc(Br)cc1Cl [Example 1-28, 6-Phenoxy-pyridine-3-sulfonic acid 4-bromo-2-chloro-benzoylamide; sodium salt] | 1 to 16 |
| O=C(NS(=O)(=O)c1ccc(N2CCCCCC2)nc1)c1ccc(Cl)cc1C(F)(F)F [Example 1-49, 6-Azepan-1-yl-pyridine-3-sulfonic acid 4-chloro-2-trifluoromethyl-benzoylamide] | 1 to 16 |
| CC1CCCN(c2ccc(S(=O)(=O)NC(=O)c3ccc(Cl)cc3C(F)(F)F)cn2)C1 (centres unmarked) [Example 1-51, 3-Methyl-3,4,5,6-tetrahydro-2H-[1,2′]bipyridinyl-5′-sulfonic acid 4-chloro-2-trifluoromethyl-benzoylamide; ammonium salt] | 1 to 16 |
| O=C(NS(=O)(=O)c1ccc(N2CCSCC2)nc1)c1ccc(Cl)cc1Cl [Example 1-71, 6-Thiomorpholin-4-yl-pyridine-3-sulfonic acid 2,4-dichloro-benzoylamide] | 1 to 16 |
| O=C(NS(=O)(=O)c1ccc(N2CCSCC2)nc1)c1ccc(Cl)cc1C(F)(F)F [Example 1-56, 6-Thiomorpholin-4-yl-pyridine-3-sulfonic acid 4-chloro-2-trifluoromethyl-benzoylamide; ammonium salt] | 1 to 16 |
| Cc1cc(Cl)ccc1C(=O)NS(=O)(=O)c1ccc(N2CCOCC2)nc1 [Example 1-2, 6-Morpholin-4-yl-pyridine-3-sulfonic acid 4-chloro-2-methyl-benzoylamide; sodium salt] | 5.32 |
| O=C(NS(=O)(=O)c1cnc(Cl)c(Br)c1)c1ccc(Br)cc1Cl [Example 1-7, 5-Bromo-6-chloro-pyridine-3-sulfonic acid 4-bromo-2-chloro-benzoylamide; sodium salt] | 8.48 |
| O=C(NS(=O)(=O)c1cccnc1)c1ccc(C(F)(F)F)cc1C(F)(F)F [Example 1-38, Pyridine-3-sulfonic acid 2,4-bis-trifluoromethyl-benzoylamide; sodium salt] | 1 to 16 |
| O=C(NS(=O)(=O)c1ccc(N2CCOCC2)nc1)c1ccc(F)cc1Cl [Example 1-10, 6-Morpholin-4-yl-pyridine-3-sulfonic acid 2-chloro-4-fluoro-benzoylamide; sodium salt] | 1 to 16 |
| COc1cc(Cl)ccc1C(=O)NS(=O)(=O)c1ccc(N2CCSCC2)nc1 [Example 1-47, 6-Thiomorpholin-4-yl-pyridine-3-sulfonic acid 4-chloro-2-methoxy-benzoylamide] | 1 to 16 |
| O=C(NS(=O)(=O)c1ccc(N2CCSCC2)nc1)c1ccc(F)cc1Cl [Example 1-68, 6-Thiomorpholin-4-yl-pyridine-3-sulfonic acid 2-chloro-4-fluoro-benzoylamide] | 1 to 16 |
| O=C(NS(=O)(=O)c1ccc(N2CCCCCC2)nc1)c1ccc(F)cc1C(F)(F)F [Example 1-78, 6-Azepan-1-yl-pyridine-3-sulfonic acid 4-fluoro-2-trifluoromethyl-benzoylamide] | 1 to 16 |

| SMILES | IC50 [µM] |
| --- | --- |
| CCCN(C)c1ccc(S(=O)(=O)NC(=O)c2ccc(F)cc2Cl)cn1 [Example 1-63, 6-(Methyl-propyl-amino)-pyridine-3-sulfonic acid 2-chloro-4-fluoro-benzoylamide] | 1 to 16 |
| O=C(NS(=O)(=O)c1cnc(Cl)c(Br)c1)c1ccc(Cl)cc1Br [Example 1-8, 5-Bromo-6-chloro-pyridine-3-sulfonic acid 2-bromo-4-chloro-benzoylamide; sodium salt] | 1 to 16 |
| O=C(NS(=O)(=O)c1cnc(Cl)c(Br)c1)c1ccc(C(F)(F)F)cc1C(F)(F)F [Example 1-18, 5-Bromo-6-chloro-pyridine-3-sulfonic acid 2,4-bis-trifluoromethyl-benzoylamide; sodium salt] | 1 to 16 |
| Cc1ccc(C(=O)NS(=O)(=O)c2ccc(Oc3ccccc3)nc2)c(Br)c1 [Example 1-40, 6-Phenoxy-pyridine-3-sulfonic acid 2-bromo-4-methyl-benzoylamide; sodium salt] | 1 to 16 |
| O=C(NS(=O)(=O)c1ccc(Oc2ccccc2)nc1)c1ccc(Cl)cc1F [Example 1-20, 6-Phenoxy-pyridine-3-sulfonic acid 4-chloro-2-fluoro-benzoylamide; sodium salt] | 1 to 16 |
| Cc1cc(Br)ccc1C(=O)NS(=O)(=O)c1ccc(N2CCOCC2)nc1 [Example 1-3, 6-Morpholin-4-yl-pyridine-3-sulfonic acid 4-bromo-2-methyl-benzoylamide; sodium salt] | 1 to 16 |
| O=C(NS(=O)(=O)c1ccc(Oc2ccccc2)nc1)c1ccc(F)cc1C(F)(F)F [Example 1-21, 6-Phenoxy-pyridine-3-sulfonic acid 4-fluoro-2-trifluoromethyl-benzoylamide; sodium salt] | 1 to 16 |
| C[C@@H]1CN(c2ccc(S(=O)(=O)NC(=O)c3ccc(Cl)cc3C(F)(F)F)cn2)C[C@H](C)O1 [Example 1-72, 6-((2R,6S)-2,6-Dimethyl-morpholin-4-yl)-pyridine-3-sulfonic acid 4-chloro-2-trifluoromethyl-benzoylamide] | 1 to 16 |
| O=C(NS(=O)(=O)c1ccc(Oc2ccccc2)nc1)c1ccc(Cl)cc1Br [Example 1-33, 6-Phenoxy-pyridine-3-sulfonic acid 2-bromo-4-chloro-benzoylamide; sodium salt] | 1 to 16 |
| CCCCN(CC)c1ccc(S(=O)(=O)NC(=O)c2ccc(Cl)cc2C(F)(F)F)cn1 [Example 1-59, 6-(Butyl-ethyl-amino)-pyridine-3-sulfonic acid 4-chloro-2-trifluoromethyl-benzoylamide; ammonium salt] | 1 to 16 |
| O=C(NS(=O)(=O)c1ccc(N2CCSCC2)nc1)c1ccc(F)cc1C(F)(F)F [Example 1-80, 6-Thiomorpholin-4-yl-pyridine-3-sulfonic acid 4-fluoro-2-trifluoromethyl-benzoylamide] | 1 to 16 |
| COc1cc(Cl)ccc1C(=O)NS(=O)(=O)c1ccc(N2CCC(OC)CC2)nc1 [Example 1-45, 4-Methoxy-3,4,5,6-tetrahydro-2H-[1,2′]bipyridinyl-5′-sulfonic acid 4-chloro-2-methoxy-benzoylamide; sodium salt] | 1 to 16 |
| O=C(NS(=O)(=O)c1ccc(Oc2ccccc2)nc1)c1ccc(C(F)(F)F)cc1F [Example 1-15, 6-Phenoxy-pyridine-3-sulfonic acid 2-fluoro-4-trifluoromethyl-benzoylamide; sodium salt] | 1 to 16 |
| O=C(NS(=O)(=O)c1cccnc1)c1ccc(Cl)cc1Cl [Example 1-24, Pyridine-3-sulfonic acid 2,4-dichloro-benzoylamide; sodium salt] | 3.17 |
| O=C(NS(=O)(=O)c1ccc(N2CCOCC2)nc1)c1ccc(Cl)cc1Cl [Example 1-1, 6-morpholin-4-yl-pyridine-3-sulfonic acid 2,4-dichloro-benzoylamide; sodium salt] | 1 to 16 |
| CCCN(CCC)c1ccc(S(=O)(=O)NC(=O)c2ccc(Cl)cc2C(F)(F)F)cn1 [Example 1-54, 6-Dipropylamino-pyridine-3-sulfonic acid 4-chloro-2-trifluoromethyl-benzoylamide] | 1 to 16 |
